Results on six compounds are retold here after patent US20060104951A1, “Akt and regulation of RA synovial fibroblast apoptosis” (priority 2004, published 2006).

Where two headings read alike, the source gives them in different places.

Data set [1] has as its target T1, Akt (Homo sapiens, UniProt P31749). The settings on record: Cell: HL-60 K562; cited from earlier work.
For data set [2], the system named is rheumatoid arthritis synovial fibroblasts (RASF). Nature of the data set: ATPlite-M cytotoxicity assay in RASF. The settings on record: wortmannin alone, 18 hours.
The target of data set [3] is T1, Akt. Set-up: many cells; H2O2-treated B cells. The settings on record: Cell: Many; cited from earlier work.
For data set [4], the target named is T1, Akt. Further details: many cells; H2O2-treated B cells. The settings on record: Cell: IL-2 activated T cell; cited from earlier work.
In data set [5] the test system is Akt. Briefly: Akt kinase assay (immunoprecipitated Akt, GSK-3 fusion protein substrate) in OASF. The format is cell-based, human. The settings on record: TNF-α 10 ng/ml. The protocol: Active Akt phosphorylates GSK-3 at […].
Akt kinase assay of RA synovial fibroblasts is performed using Akt kinase assay kit according to the protocol provided by manufacturer (New England Biolabs, Beverly, Mass.). Briefly, three hundreds micrograms of total proteins from RA synovial fibroblasts are added into Akt antibody coated beads, incubated at 4° C. for 3 hours followed by washing. Phosphorylation of GSK-3 is used as an indicator of phosphorylated Akt, since Akt negatively regulates GSK-3a/b kinase activity via phosphorylation of GSK-3 at […]. After the kinase reaction, the reaction mixture is electrophoresed on a 12% SDS-PAGE gel and western blotted. The blots are probed with an anti-phospho-GSK-3a/b (Ser219) antibody (rabbit polyclonal IgG, affinity purified).

The test system of data set [6] is phosphorylated Akt (Thr308). Nature of the data set: Immunohistochemical staining of phosphorylated Akt in primary RASF. The settings on record: TNF-α 10 ng/ml alone vs PBS, 18 hours.
Protocol: To determine if this TNF-α survival signal involves a PI 3-kinase dependent mechanism, RASF and OASF are treated with TNF-α (10 ng/ml), using PBS as a control, in the presence and absence of the PI 3-kinase inhibitor, wortmannin (50 nM). After 18 hours, the synovial fibroblasts are stained using an antibody specific for phosphorylated-Akt.
The in-situ expression of phosphorylated-Akt is determined by staining fixed cells with an antibody specific for Thr308 phosphorylated Akt (New England Biolabs, Beverly, Mass.). Quenching of endogenous peroxidase is performed by incubating tissue sections with 3% H2O2 at RT for 10 min in a humidified chamber. After washing with PBS, tissue sections are incubated with 0.1% trypsin at 37° C. for 10 min to reveal fixed antigen epitopes. Tissue sections are then treated with denaturing solution at 20° C. for 30 min and blocking solution at RT for 10 min followed by incubation with a horseradish peroxidase (HRP) conjugated antibody specific for phosphorylated-Akt antibody (New England Biolabs, Beverly, Mass.). Slides are incubated with DAB staining kit (DAKO) for color development then counterstained with methyl green. At least 5 areas from each specimen are chosen randomly for assessment of the percentage of Akt-positive cells.
Data set [7] deals with phosphorylated Akt. Briefly: Western blot of phosphorylated-Akt in RASF lysates. The settings on record: TNF-α 10 ng/ml alone.
Protocol: The levels of phosphorylated-Akt are determined by Western blot analysis of lysates from RASF and OASF cell lines.
To determine the optimal amount of AdAkt-DN required to inhibit Akt phosphorylation, RASF is transfected with either 50 pfu/cell of AdGFP or with 5 pfu/cell or with 50 pfu/cell of AdAkt-DN respectively for 18 hr. The cells are then stimulated with TNFα (10 ng/ml) for 18 hr.
For evaluation of the phosphorylated form of Akt, the synovial cells are washed twice with ice-cold PBS followed by incubation with 200 μl of cell lysis buffer (20 mmol/L Tris [pH 7.4], 150 mmol/L NaCl, 1 mmol/L EDTA, 1 mmol/L EGTA, 1% Triton, 2.5 mmol/L sodium pyrophosphate, 1 mmol/L β-glycerophosphate, 1 mmol/L Na3VO4, 1 μg/mL leupeptin, and 1 mmol/L PMSF) for 5 min on ice. The cells are then harvested by scraping and sonicated using a Branson Sonicator (3×5 seconds, output control 2, duty cycle 100%) on ice. After centrifugation for 10 min at 20,000 g at 4° C., the protein concentration of the supernatant is determined using the Bio-Rad protein assay kit (Bio-Rad, Hercules, Calif.). […] Phosphorylated Akt is detected using the PhosphoPlus Akt antibody kit (New England Biolabs, Beverly, Mass.).

T1 sequence (P31749 whole entry): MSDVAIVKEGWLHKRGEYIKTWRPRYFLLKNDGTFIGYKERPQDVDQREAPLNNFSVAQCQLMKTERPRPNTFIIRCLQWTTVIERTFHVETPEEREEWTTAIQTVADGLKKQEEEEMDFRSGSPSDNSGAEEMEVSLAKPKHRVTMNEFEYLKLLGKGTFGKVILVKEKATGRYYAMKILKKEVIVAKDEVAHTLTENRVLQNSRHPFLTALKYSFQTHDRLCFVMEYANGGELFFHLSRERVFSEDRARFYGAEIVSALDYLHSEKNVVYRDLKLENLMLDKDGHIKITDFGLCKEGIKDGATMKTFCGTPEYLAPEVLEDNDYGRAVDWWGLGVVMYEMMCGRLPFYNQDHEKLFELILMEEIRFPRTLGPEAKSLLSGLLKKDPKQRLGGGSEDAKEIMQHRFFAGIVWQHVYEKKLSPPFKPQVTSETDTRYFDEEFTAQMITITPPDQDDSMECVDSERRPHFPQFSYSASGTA

In the case of `Cc1ccc(NC(=O)c2ccc(CN3CCN(C)CC3)cc2)cc1Nc1nccc(-c2cccnc2)n1` [CGP57148B], the Action entry in data set [1] is “Block Akt”. As for `COC[C@H]1OC(=O)c2coc3c2[C@@]1(C)C1=C(C3=O)[C@@H]2CCC(=O)[C@@]2(C)C[C@H]1OC(C)=O` [wortmannin], the “cytotoxicity (ATPlite)” value in data set [2] is reported as “Neither treatment with TNF-α nor wortmannin alone could induce cytotoxicity”. In the case of “Insulin-like growth factor-1: growth factor known to activate Akt”, in data set [3], the Action result is listed as “Activates Akt”. With `C[S+]([O-])c1ccc(-c2nc(-c3ccncc3)c(-c3ccc(F)cc3)[nH]2)cc1` (centres unmarked) [SB 203580], the Action entry in data set [4] is “Block Akt”. tumor necrosis factor-alpha [TNF-α]: in data set [5], the Akt kinase activity result is listed as “did not induce Akt kinase activity”. Also, the “production of phosphorylated Akt (immunohistochemical staining)” value in data set [6] is reported as “greatly enhanced production of phosphorylated Akt”. Further, in data set [7], the “levels of phosphorylated-Akt (Western blot)” value is recorded as “marked increase”. On to PDGF, for which, in data set [3], the Action entry is on record as “Activates Akt”.
